# ChEMBL document CHEMBL5344442, “Antiviral Activity of Lipophilic Nucleoside Tetraphosphate Compounds” (J Med Chem, 2024)
# pEC50: −log10 of the molar value.
# Experiments:
# [1] = system: Human immunodeficiency virus 1; experiment: Antiviral activity against HIV-1 HE infected in human CEM/0 cells assessed as inhibition of virus-induced cytopathogenicity measured after 4 to 5 days by microscopic analysis; type: functional, organism-based; conditions: Human immunodeficiency virus 1, HE, CCRF-CEM
# [2] = system: Human immunodeficiency virus 2; experiment: Antiviral activity against HIV-2 ROD infected in human CEM/0 cells assessed as inhibition of virus-induced cytopathogenicity measured after 4 to 5 days by microscopic analysis; type: functional, organism-based; conditions: Human immunodeficiency virus 2, ROD, CCRF-CEM
# [3] = system: Human immunodeficiency virus 2; experiment: Antiviral activity against HIV-2 ROD infected in human CEM/TK- cells assessed as inhibition of virus-induced cytopathogenicity measured after 4 to 5 days by microscopic analysis; type: functional, organism-based; conditions: Human immunodeficiency virus 2, ROD, CCRF-CEM
# [4] = Selectivity index, ratio of CC50 for cytotoxicity against human CEM/0 cells to EC50 for antiviral activity against HIV-2 ROD infected in human CEM/0 cells; type: toxicity, cell-based; conditions: read-out: Ratio CC50/EC50
# [5] = Half life of the compound in PBS buffer at pH 7.3 by RP-18-HPLC analysis; type: physicochemical
# [6] = Lipophilicity of the compound assessed as retention time by RP-18-HPLC analysis; type: physicochemical
# [7] = Drug metabolism assessed as d4TTP metabolite formation in presence of pig liver esterase by RP-18-HPLC analysis; type: ADME, Sus scrofa; conditions: isolated protein
# [8] = Drug metabolism in human CEM/0 cells assessed as d4TTP metabolite formation by RP18-HPLC analysis; type: ADME, cell-based; conditions: ccrf-cem
# [9] = Drug metabolism in human CEM/0 cells assessed as d4TDP metabolite formation by RP18-HPLC analysis; type: ADME, cell-based; conditions: ccrf-cem
# [10] = Drug metabolism in human CEM/0 cells assessed as [hydroxy-[hydroxy-[hydroxy-[[(2S,5R)-5-(5-methyl-2,4-dioxo-pyrimidin-1-yl)-2,5-dihydrofuran-2-yl]methoxy]phosphoryl]oxy-phosphoryl]oxy-phosphoryl]oxy-octadecyl-phosphinic acid formation by RP18-HPLC analysis; type: ADME, cell-based; conditions: ccrf-cem
# [11] = Drug metabolism assessed as [hydroxy-[hydroxy-[hydroxy-[[(2S,5R)-5-(5-methyl-2,4-dioxo-pyrimidin-1-yl)-2,5-dihydrofuran-2-yl]methoxy]phosphoryl]oxy-phosphoryl]oxy-phosphoryl]oxy-octadecyl-phosphinic acid formation in presence of pig liver esterase by RP-18-HPLC analysis; type: ADME, Sus scrofa; conditions: isolated protein
# [12] = Cytotoxicity against human CEM/0 cells assessed as inhibition of cell proliferation; type: toxicity, cell-based, CCRF-CEM
# [13] = Drug metabolism in human CEM/0 cells assessed as half life of d4TTP by RP18-HPLC analysis; type: ADME, cell-based; conditions: ccrf-cem
# [14] = Drug metabolism in PBS buffer assessed as d4TMP metabolite formation at pH 7.3 by RP-18-HPLC analysis; type: ADME
# [15] = Drug metabolism in human CEM/0 cells assessed as half life of d4T4P by RP18-HPLC analysis; type: ADME, cell-based; conditions: ccrf-cem
# [16] = Drug metabolism in human CEM/0 cells assessed as [4-[[hydroxy-[hydroxy-[hydroxy-[hydroxy-[[(2S,5R)-5-(5-methyl-2,4-dioxo-pyrimidin-1-yl)-2,5-dihydrofuran-2-yl]methoxy]phosphoryl]oxy-phosphoryl]oxy-phosphoryl]oxy-phosphoryl]oxymethyl]phenyl]-decanoate formation by RP18-HPLC analysis; type: ADME, cell-based; conditions: ccrf-cem
# [17] = Drug metabolism in citrate-stabilized human plasma assessed as [4-[[hydroxy-[hydroxy-[hydroxy-[hydroxy-[[(2S,5R)-5-(5-methyl-2,4-dioxo-pyrimidin-1-yl)-2,5-dihydrofuran-2-yl]methoxy]phosphoryl]oxy-phosphoryl]oxy-phosphoryl]oxy-phosphoryl]oxymethyl]phenyl]-decanoate formation by RP-18-HPLC analysis; type: ADME, cell-free
# [18] = Drug metabolism assessed as [4-[[hydroxy-[hydroxy-[hydroxy-[hydroxy-[[(2S,5R)-5-(5-methyl-2,4-dioxo-pyrimidin-1-yl)-2,5-dihydrofuran-2-yl]methoxy]phosphoryl]oxy-phosphoryl]oxy-phosphoryl]oxy-phosphoryl]oxymethyl]phenyl]-decanoate formation in presence of pig liver esterase by RP-18-HPLC analysis; type: ADME, Sus scrofa; conditions: isolated protein
# [19] = Drug metabolism assessed as d4T4P metabolite formation in presence of pig liver esterase by RP-18-HPLC analysis; type: ADME, Sus scrofa; conditions: isolated protein
# [20] = Drug metabolism in citrate-stabilized human plasma assessed as d4T formation by RP-18-HPLC analysis; type: ADME, cell-free
# [21] = Stability of compound assessed as pig liver esterase mediated hydrolysis by measuring half life by RP-18-HPLC analysis; type: ADME, tissue-based, Sus scrofa
# [22] = Half life of the compound in human CEM/0 extracts by RP-18-HPLC analysis; type: ADME, CCRF-CEM; conditions: CEM/0 cell extracts
# [23] = Drug metabolism in citrate-stabilized human plasma assessed as [hydroxy-[hydroxy-[hydroxy-[[(2S,5R)-5-(5-methyl-2,4-dioxo-pyrimidin-1-yl)-2,5-dihydrofuran-2-yl]methoxy]phosphoryl]oxy-phosphoryl]oxy-phosphoryl]oxy-octadecyl-phosphinic acid formation by RP18-HPLC analysis; type: ADME, cell-free
# [24] = Drug metabolism in citrate-stabilized human plasma assessed as d4TDP formation by RP18-HPLC analysis; type: ADME, cell-free
# [25] = Drug metabolism in citrate-stabilized human plasma assessed as d4TMP formation by RP18-HPLC analysis; type: ADME, cell-free
# [26] = Drug metabolism in citrate-stabilized human plasma assessed as [hydroxy-[hydroxy-[hydroxy-[[(2S,5R)-5-(5-methyl-2,4-dioxo-pyrimidin-1-yl)-2,5-dihydrofuran-2-yl]methoxy]phosphoryl]oxy-phosphoryl]oxy-phosphoryl] octadecyl hydrogen phosphate formation by RP18-HPLC analysis; type: ADME, cell-free
# [27] = Drug metabolism in citrate-stabilized human plasma assessed as d4TTP formation by RP18-HPLC analysis; type: ADME, cell-free
# [28] = Drug metabolism assessed as [hydroxy-[hydroxy-[hydroxy-[[(2S,5R)-5-(5-methyl-2,4-dioxo-pyrimidin-1-yl)-2,5-dihydrofuran-2-yl]methoxy]phosphoryl]oxy-phosphoryl]oxy-phosphoryl] octadecyl hydrogen phosphate formation in presence of pig liver esterase by RP-18-HPLC analysis; type: ADME, Sus scrofa; conditions: isolated protein
# [29] = Drug metabolism in human CEM/0 cells assessed as [hydroxy-[hydroxy-[hydroxy-[[(2S,5R)-5-(5-methyl-2,4-dioxo-pyrimidin-1-yl)-2,5-dihydrofuran-2-yl]methoxy]phosphoryl]oxy-phosphoryl]oxy-phosphoryl] octadecyl hydrogen phosphate formation by RP18-HPLC analysis; type: ADME, cell-based; conditions: ccrf-cem
# [30] = Selectivity index, ratio of CC50 for cytotoxicity against human CEM/TK- cells to EC50 for antiviral activity against HIV-2 ROD infected in human CEM/TK- cells; type: toxicity, cell-based; conditions: read-out: Ratio CC50/EC50
smiles,measurement,setting,value
CCCCCCCCCCCCCCCCCCP(=O)(OCc1ccc(OC(=O)CCCC)cc1)OP(=O)(O)OP(=O)(O)OC[C@@H]1C=C[C@H](n2cc(C)c(=O)[nH]c2=O)O1 (stereo partly drawn),pEC50,[1],8.15
same,pEC50,[2],7.68
same,pEC50,[3],7.38
same,selectivity ratio,[4],452
same,half-life,[5],646 h
CCCCCCCCCCCCCCCCCCOP(=O)(OCC(CC)CCCC)OP(=O)(O)OP(=O)(O)OP(=O)(O)OC[C@@H]1C=C[C@H](n2cc(C)c(=O)[nH]c2=O)O1 (stereo partly drawn),Retention_time,[6],15.2 min
CCCCCCCCCCCCCCCCCCOP(=O)(O)OP(=O)(O)OP(=O)(O)OP(=O)(O)OC[C@@H]1C=C[C@H](n2cc(C)c(=O)[nH]c2=O)O1,Retention_time,[6],13.3 min
CCCCCCCCCCCCCCCCCCOP(=O)(OCCCC)OP(=O)(O)OP(=O)(O)OC[C@@H]1C=C[C@H](n2cc(C)c(=O)[nH]c2=O)O1 (stereo partly drawn),pEC50,[1],7.15
same,pEC50,[2],7.39
same,pEC50,[3],7.49
CCCCOP(=O)(OCCCC)OP(=O)(O)OP(=O)(O)OP(=O)(O)OC[C@@H]1C=C[C@H](n2cc(C)c(=O)[nH]c2=O)O1,Retention_time,[6],10.2 min
CCCCCCCCCCCCCCCCOC(=O)Oc1ccc(COP(=O)(OCc2ccc(OC(=O)CCCC)cc2)OP(=O)(O)OP(=O)(O)OP(=O)(O)OC[C@@H]2C=C[C@H](n3cc(C)c(=O)[nH]c3=O)O2)cc1 (stereo partly drawn),Retention_time,[6],16 min
CCCCCCCCCCCCOP(=O)(OCCCCCCCCCCCC)OP(=O)(O)OP(=O)(O)OP(=O)(O)OC[C@@H]1C=C[C@H](n2cc(C)c(=O)[nH]c2=O)O1,Retention_time,[6],14.7 min
CCCCCCCCCCCCCCCCCCP(=O)(OCc1ccc(OC(=O)CCCC)cc1)OP(=O)(O)OP(=O)(O)OP(=O)(O)OC[C@@H]1C=C[C@H](n2cc(C)c(=O)[nH]c2=O)O1 (stereo partly drawn),Drug metabolism,[7],Metabolite_Detected
same,Drug metabolism,[8],Metabolite_Detected
same,pEC50,[3],8.22
same,Drug metabolism,[9],Metabolite_Detected
same,Drug metabolism,[10],Metabolite_Detected
same,Drug metabolism,[11],Metabolite_Detected
same,Retention_time,[6],15.2 min
Cc1cn([C@H]2C=C[C@@H](COP(=O)(O)OP(=O)(O)OP(=O)(O)OP(=O)(O)O)O2)c(=O)[nH]c1=O,selectivity ratio,[4],454
same,Retention_time,[6],10.2 min
CCCCCCCCCCCCCCCCCCP(=O)(O)OP(=O)(O)OP(=O)(O)OP(=O)(O)OC[C@@H]1C=C[C@H](n2cc(C)c(=O)[nH]c2=O)O1,selectivity ratio,[4],105
same,Retention_time,[6],13.2 min
CCCCCCCCCCCCCCCCCCOP(=O)(OCc1ccc(OC(=O)CCCC)cc1)OP(=O)(O)OP(=O)(O)OC[C@@H]1C=C[C@H](n2cc(C)c(=O)[nH]c2=O)O1 (stereo partly drawn),pEC50,[1],6.74
same,pEC50,[2],6.80
same,pEC50,[3],6.77
same,selectivity ratio,[4],76
same,half-life,[5],237 h
same,CC50,[12],13000 nM
CCCCCCCCCCCCCCCCCCOP(=O)(OCCCC)OP(=O)(O)OP(=O)(O)OP(=O)(O)OC[C@@H]1C=C[C@H](n2cc(C)c(=O)[nH]c2=O)O1 (stereo partly drawn),t1/2,[13],0.633 h
same,Drug metabolism,[7],Metabolite_Detected
same,Drug metabolism,[14],Metabolite_Detected
same,Drug metabolism,[9],Metabolite_Detected
same,Retention_time,[6],14.5 min
CCCCCCCCCC(=O)Oc1ccc(COP(=O)(OCc2ccc(OC(=O)CCCCCCCCC)cc2)OP(=O)(O)OP(=O)(O)OP(=O)(O)OC[C@@H]2C=C[C@H](n3cc(C)c(=O)[nH]c3=O)O2)cc1,t1/2,[13],0.633 h
same,t1/2,[15],0.367 h
same,Drug metabolism,[7],Metabolite_Detected
same,Drug metabolism,[16],Metabolite_Detected
same,Drug metabolism,[17],Metabolite_Detected
same,Drug metabolism,[18],Metabolite_Detected
same,Drug metabolism,[19],Metabolite_Detected
same,Drug metabolism,[20],Metabolite_Detected
same,Retention_time,[6],15.2 min
CCCCCCCCCC(=O)Oc1ccc(COP(=O)(OCc2ccc(OC(=O)CCCCCCCCC)cc2)OP(=O)(O)OP(=O)(O)OC[C@@H]2C=C[C@H](n3cc(C)c(=O)[nH]c3=O)O2)cc1,half-life,[21],4.92 min
same,half-life,[5],44 h
same,half-life,[22],2.8 h
same,Retention_time,[6],16.3 min
CCCCCCCCCCCCCCCCCCP(=O)(OCCCC)OP(=O)(O)OP(=O)(O)OP(=O)(O)OC[C@@H]1C=C[C@H](n2cc(C)c(=O)[nH]c2=O)O1 (stereo partly drawn),Drug metabolism,[23],Metabolite_Notdetected
same,Drug metabolism,[24],Metabolite_Notdetected
same,Drug metabolism,[25],Metabolite_Notdetected
same,t1/2,[13],0.633 h
same,Drug metabolism,[7],Metabolite_Detected
same,Drug metabolism,[14],Metabolite_Detected
same,Drug metabolism,[26],Metabolite_Notdetected
same,Drug metabolism,[9],Metabolite_Detected
same,Drug metabolism,[27],Metabolite_Notdetected
same,Retention_time,[6],14.4 min
CCCCCCCCCCCCCCCCCCP(=O)(OCCCC)OP(=O)(O)OP(=O)(O)OC[C@@H]1C=C[C@H](n2cc(C)c(=O)[nH]c2=O)O1 (stereo partly drawn),pEC50,[1],7.51
same,pEC50,[2],7.46
same,pEC50,[3],7.74
CCCCCCCCCCCCCCCCCCP(=O)(OCC(CC)CCCC)OP(=O)(O)OP(=O)(O)OP(=O)(O)OC[C@@H]1C=C[C@H](n2cc(C)c(=O)[nH]c2=O)O1 (stereo partly drawn),Retention_time,[6],15.1 min
CCCCCCCCCCCCCCCCCCOP(=O)(OCCCCCCCCCCCCCCCCCC)OP(=O)(O)OP(=O)(O)OP(=O)(O)OC[C@@H]1C=C[C@H](n2cc(C)c(=O)[nH]c2=O)O1,Retention_time,[6],20.7 min
CCCCCCCCCCCCCCCCCCOP(=O)(OCc1ccc(OC(=O)CCCC)cc1)OP(=O)(O)OP(=O)(O)OP(=O)(O)OC[C@@H]1C=C[C@H](n2cc(C)c(=O)[nH]c2=O)O1 (stereo partly drawn),Drug metabolism,[7],Metabolite_Detected
same,Drug metabolism,[8],Metabolite_Detected
same,Drug metabolism,[26],Metabolite_Detected
same,Drug metabolism,[28],Metabolite_Detected
same,Drug metabolism,[9],Metabolite_Detected
same,Drug metabolism,[29],Metabolite_Detected
same,Drug metabolism,[20],Metabolite_Detected
same,Retention_time,[6],15.3 min
Cc1cn([C@H]2C=C[C@@H](CO)O2)c(=O)[nH]c1=O [STAVUDINE],selectivity ratio,[4],1
same,selectivity ratio,[30],1
